Data on two compounds can be found in patent US20160199326A1, “USE OF TRIFLUOROACETIC ACID AS KERATOLYTIC AGENT TO TREAT HYPERKERATOTIC SKIN LESIONS” (POLICHEM S.A., priority 2013, published 2016).

Data set [1] concerns solid tumor cells. As to conditions: in vitro; cited from earlier work.
Data set [2] has as its system tumor growth. As to conditions: animal experimental models; cited from earlier work.
The subject of data set [3] is angiogenesis. As to conditions: cited from earlier work.
The subject of data set [4] is stratum corneum of hairless rats. As to the kind of experiment: Exfoliating activity in vivo after topical application on the back of hairless rats, histological evaluation. The arrangement: species or system rat. As to conditions: ten hairless rats, 10% CaTFA gel topical two times a day for ten days. How it is done: The formulations used had the following composition: Medicated formulation (D) CaTFA 10.00 g, Xanthan gum 2.00 g, Water q.s. to 100.00 g. Vehicle (V): Xanthan gum 2.00 g, Water q.s. to 100.00 g.
The experiments were carried out on 4 weeks old hairless male rats (HsdHanTM:RNU—Foxnl rnu, Harlan Italy srl, Correzzana, Italy). The back of ten rats was divided in two parts (section area: 2.5×3.0 cm) for topical application of the test formulations. A volume of 200 μl of the medicated formulation or the vehicle was applied two times a day for ten days. Fifteen hours after the last administration, the animals were sacrificed by cervical dislocation and the portion of skin submitted to the treatment was excised, carefully rinsed to remove the remaining formulation and submitted to histological evaluation. A sample of untreated skin of each animal was used as control (C). The histological evaluation was done as follows: the skin samples were fixed in 10% buffered formalin solution, dehydrated and embedded in JB-4 plastic resin. Coronal sections were cut by a microtome (Reichert-Jung) and mounted onto gelatin coated slides. Sections were stained with methylene blue/toluidine blue for microscopic examination to verify the absence of stratum corneum and the condition of the other parts of the skin. The specimens were assessed under Leitz Diaplan microscope.

For data set [5] the following is noted: known; cited from earlier work.

Take `O=C([O-])C(F)(F)F.O=C([O-])C(F)(F)F.[Ca+2]` [Calcium trifluoroacetate]: in data set [1], the cytotoxic activity entry is listed as “in vitro cytotoxic activity on solid tumor cells”. In data set [2], the tumor growth result is recorded as “inhibit tumor growth”. In addition, the antiangiogenetic activity result in data set [3] is “relevant antiangiogenetic activity”. Moreover, in data set [4], the “effective as keratolytic agent, share of treated animals” value was 70%.
With `O=C([O-])C(F)(F)F.[Na+]` [NaTFA, Sodium Trifluoroacetate], the toxicity entry in data set [5] is recorded as “devoid of significant toxicity”.
